According to publication PMC10094617, “Iron(III) Complexes with Non-Steroidal Anti-Inflammatory Drugs: Structure, Antioxidant and Anticholinergic Activity, and Interaction with Biomolecules” (International Journal of Molecular Sciences, 2023):

Key:
EB–DNA adduct (CT DNA) = assay: EB-displacement from EB–DNA adduct (fluorescence emission); format: binding, calf; settings: for KSV Stern–Volmer constant (EB–DNA): EB–DNA fluorescence; for relative EB–DNA fluorescence intensity (I/Io, %) remaining: λem = 592 nm, up to, % of the initial EB–DNA fluorescence; for Kq quenching constant of the EB–DNA fluorescence: τo = 23 ns
Experimental: EB-displacement studies: The competition of complexes 1–3 with EB was investigated by fluorescence emission spectroscopy in order to examine whether the complexes can displace EB from its DNA–EB conjugate. The DNA–EB conjugate was prepared by adding 20-μM EB and 26-μM CT DNA in the buffer solution (150-mM NaCl and 15-mM trisodium citrate at pH 7.0). The possible intercalating effect of the complexes was studied by the addition of a certain amount of a solution of the compound into a solution of the DNA–EB conjugate. The influence of each compound to the DNA–EB complex solution was obtained by recording the changes in the fluorescence emission spectra with the excitation wavelength (λex) at 540 nm.
The Stern–Volmer constant KSV is used to evaluate the quenching efficiency for each compound according to the Stern–Volmer equation (Equation (3)), where Io and I are the emission intensities in the absence and the presence of the quencher, respectively, and [Q] is the concentration of the quencher (i.e., complexes 1–3). The value of KSV is obtained from the Stern–Volmer plots by using the slope of the diagram Io/I versus [Q]. Taking τo = 23 ns as the fluorescence lifetime of the EB–DNA system, the EB–DNA quenching constants (Kq, in M^−1s^−1) of the compounds can be determined according to Equation (4).

DPPH radical scavenging = format: biochemical; settings: compound 0.1 mM; for DPPH% (DPPH scavenging ability), 20 min / DPPH% (DPPH scavenging ability), 60 min: ethanol
Experimental: (§1) The antioxidant activity of complexes 1–3 was evaluated via their ability to scavenge the free radicals DPPH, hydroxyl, and ABTS. Each experiment was performed in triplicate and the standard deviation of absorbance was less than 10% of the mean.
Ethanol was also used as a control solution. The absorbance at 517 nm was recorded at room temperature, two times, after 20 and 60 min, in order to examine the time-dependence of the DPPH-scavenging activity. The DPPH-scavenging activity of the compounds was expressed as the percentage reduction of the absorbance values of the initial DPPH solution (RA%). The compounds NDGA and BHT were used as reference compounds.

[1] = Competition with DMSO for hydroxyl radicals; format: biochemical; settings: compound 0.1 mM; 30 min, 37 °C, pH 7.4
Experimental: as §1
Competition of the tested compounds with DMSO for hydroxyl radicals: The hydroxyl radicals generated by the Fe^3+/ascorbic acid system were detected according to Nash by the determination of formaldehyde produced from the oxidation of DMSO [155]. The reaction mixture contained EDTA (0.1 mM), Fe^3+ (167 μM), DMSO (33 mM) in phosphate buffer (50 mM, pH 7.4), complexes 1–3 (concentration 0.1 mM), and ascorbic acid (10 mM). After a 30-min incubation at 37 °C, the reaction was stopped with CCl3COOH (17% w/v) and the absorbance at λ = 412 nm was measured. Trolox was used as a reference compound. The competition of the compounds with DMSO for •OH, generated by the Fe^3+/ascorbic acid system, expressed as the percentage of inhibition of formaldehyde production, was used for the evaluation of their hydroxyl radical-scavenging activity (OH%).

[2] = biological target: T1, human serum albumin (HSA) (Homo sapiens, UniProt P02768); assay: HSA fluorescence emission quenching (albumin binding); settings: for ΔI/Io (%) quenching of HSA fluorescence: HSA 3 μM, λex 295 nm, λem 351 nm; for K albumin-binding constant (HSA): Scatchard equation; for Kq albumin-quenching constant (HSA): Stern–Volmer, τo = 10^−8 s; for relative HSA fluorescence emission intensity (I/Io, %) remaining: λem,max = 351 nm, up to, % of the initial HSA fluorescence
T1 construct: purchased Sigma-Aldrich Co. (St. Louis, MO, USA)
T1 sequence (P02768 25-609): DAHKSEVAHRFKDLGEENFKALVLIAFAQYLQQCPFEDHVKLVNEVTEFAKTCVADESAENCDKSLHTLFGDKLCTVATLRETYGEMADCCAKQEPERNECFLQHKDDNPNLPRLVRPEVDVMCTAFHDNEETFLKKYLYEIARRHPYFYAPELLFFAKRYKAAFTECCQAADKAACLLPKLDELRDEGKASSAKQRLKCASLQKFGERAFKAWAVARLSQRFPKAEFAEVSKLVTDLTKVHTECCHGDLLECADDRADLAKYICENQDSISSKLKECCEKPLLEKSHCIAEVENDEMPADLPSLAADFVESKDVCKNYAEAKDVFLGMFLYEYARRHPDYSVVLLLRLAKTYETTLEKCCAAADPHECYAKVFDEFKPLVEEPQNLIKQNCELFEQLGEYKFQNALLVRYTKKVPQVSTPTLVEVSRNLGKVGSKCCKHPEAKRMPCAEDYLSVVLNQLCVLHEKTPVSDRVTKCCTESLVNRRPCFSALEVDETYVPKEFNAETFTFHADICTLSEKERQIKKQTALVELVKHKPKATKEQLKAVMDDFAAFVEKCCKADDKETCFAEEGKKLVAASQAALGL
Experimental: (§2) The albumin-binding study for complexes 1–3 was performed via fluorescence emission quenching experiments using BSA (3 μM) or HSA (3 μM), respectively, in a buffer solution (containing 15-mM trisodium citrate and […] at pH 7.0). The quenching of the emission intensity of tryptophan residues of BSA at 343 nm or HSA at 351 nm was monitored using complexes 1–3 as quenchers with increasing concentrations. The fluorescence emission spectra were recorded in the range of 300–500 nm, with an excitation wavelength of 295 nm. The quantitative studies of the serum albumin fluorescence spectra were performed after correction by subtracting the spectra of the compounds.
(§3) The extent of the inner-filter effect can be roughly estimated with the following formula:(2) Icorr=Imeas×10^ε(λexc)cd/2×10^ε(λem)cd/2 where Icorr = corrected intensity, Imeas = the measured intensity, c = the concentration of the quencher, d = the cuvette (1 cm), ε(λexc), and ε(λem) = the ε of the quencher at the excitation and the emission wavelength, respectively, as calculated from the UV-vis spectra of the complexes.
(§4) The Stern–Volmer and Scatchard graphs are used in order to study the interaction of a quencher with serum albumins. The Stern–Volmer quenching equation is used:(3) Io/I=1+Kq×τ0×[Q]=1+KSV×[Q] where Io = the initial tryptophan fluorescence intensity of SA, I = the tryptophan fluorescence intensity of SA after the addition of the quencher, Kq = the quenching constants of SA, KSV = the Stern–Volmer constant, τo = the average lifetime of SA without the quencher, and [Q] = the concentration of the quencher. The value of KSV (M^−1) can be obtained by the slope of the diagram Io/I versus [Q]. Taking τo = 10^−8 s as the fluorescence lifetime of tryptophan in SA, the value of Kq (M^−1s^−1) is calculated from the equation:(4) KSV=Kq×τo and from the Scatchard equation [130]:(5) ΔI/Io/[Q]=n×K−K×ΔI/Io where n is the number of binding sites per albumin and K is the SA-binding constant, K (in M^−1) is calculated from the slope in plots (ΔI/Io)/[Q] versus (ΔI/Io), and n is given by the ratio of y-intercept to the slope.

[3] = ABTS radical cation scavenging; format: biochemical; settings: compound 0.1 mM; 1 min after mixing
Experimental: as §1
Assay of radical cation scavenging activity (ABTS^+•): An ABTS cationic radical (ABTS^+•) was produced by reacting an aqueous stock solution (2 mM) of ABTS with 0.17-mM potassium persulfate and allowing the mixture to stand in the dark at room temperature for 12–16 h before use. […] Although the oxidation of ABTS commenced immediately, the absorbance became maximal and stable after 6 h. The radical was stable in this form for more than two days when stored in the dark at room temperature. The ABTS radical solution was diluted with ethanol to an absorbance of 0.70 at 734 nm. After the addition of 10 μL of complexes 1–3 or the standards (0.1 mM) in DMSO, the absorbance was recorded exactly 1 min after initial mixing. The radical scavenging activity of the complexes was expressed as the percentage inhibition of the absorbance of the initial ABTS solution (ABTS%). Trolox was used as a reference compound.

[4] = biological target: T2, bovine serum albumin (BSA) (Bos taurus, UniProt P02769); assay: BSA fluorescence emission quenching (albumin binding); settings: for ΔI/Io (%) quenching of BSA fluorescence: BSA 3 μM, λex 295 nm, λem 343 nm; for K albumin-binding constant (BSA): Scatchard equation; for Kq albumin-quenching constant (BSA): Stern–Volmer, τo = 10^−8 s; for relative BSA fluorescence emission intensity (I/Io, %) remaining: λem,max = 343 nm, up to, % of the initial BSA fluorescence
T2 construct: purchased Sigma-Aldrich Co. (St. Louis, MO, USA)
T2 sequence (P02769 25-607): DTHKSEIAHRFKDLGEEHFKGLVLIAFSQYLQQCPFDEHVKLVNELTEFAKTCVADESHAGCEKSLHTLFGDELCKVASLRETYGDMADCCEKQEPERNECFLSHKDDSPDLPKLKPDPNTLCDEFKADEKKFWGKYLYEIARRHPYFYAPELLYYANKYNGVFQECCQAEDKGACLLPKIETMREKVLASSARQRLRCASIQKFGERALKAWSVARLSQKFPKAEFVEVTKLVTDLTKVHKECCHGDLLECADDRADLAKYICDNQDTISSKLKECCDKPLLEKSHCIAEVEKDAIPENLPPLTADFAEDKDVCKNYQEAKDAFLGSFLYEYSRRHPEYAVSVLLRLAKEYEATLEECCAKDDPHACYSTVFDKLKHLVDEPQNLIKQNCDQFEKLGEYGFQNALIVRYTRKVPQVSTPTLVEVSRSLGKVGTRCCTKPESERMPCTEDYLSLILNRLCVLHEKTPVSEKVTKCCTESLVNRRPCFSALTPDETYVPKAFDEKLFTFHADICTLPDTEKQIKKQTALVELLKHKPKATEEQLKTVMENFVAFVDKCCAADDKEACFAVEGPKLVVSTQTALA
Experimental: as §2, §3, §4

Substance | KSV Stern–Volmer constant (EB–DNA) (EB–DNA adduct (CT DNA)) | relative EB–DNA fluorescence intensity (I/Io, %) remaining (EB–DNA adduct (CT DNA)) | Kq quenching constant of the EB–DNA fluorescence (EB–DNA adduct (CT DNA)) | DPPH% (DPPH scavenging ability), 20 min (DPPH radical scavenging) | DPPH% (span over 20-min and 60-min treatments) (DPPH radical scavenging; 20 min and 60 min) | DPPH% (DPPH scavenging ability), 60 min (DPPH radical scavenging) | OH% (competition % with DMSO for hydroxyl radical) [1] | ΔI/Io (%) quenching of HSA fluorescence [2] | K albumin-binding constant (HSA) [2] | Kq albumin-quenching constant (HSA) [2] | relative HSA fluorescence emission intensity (I/Io, %) remaining [2] | ABTS% (ABTS radical scavenging activity) [3] | ΔI/Io (%) quenching of BSA fluorescence [4] | K albumin-binding constant (BSA) [4] | Kq albumin-quenching constant (BSA) [4] | relative BSA fluorescence emission intensity (I/Io, %) remaining [4] | ΔI/Io (%) EB–DNA fluorescence quenching (EB–DNA adduct (CT DNA); [EB] = 20 μM, [DNA] = 26 μM, λex 540 nm, λem 592 nm)
[Fe3O(dicl)6(py)3]Cl∙py [Complex 2] | 6.15 (±0.29) × 10^5 M^−1 | 41.8% | 2.68 (±0.56) × 10^13 M^−1s^−1 | 23.12 ± 0.37% | 22.97–23.12% | 22.97 ± 0.17% | 87.89 ± 0.84% | 99.4% | 3.87 (±0.42) × 10^5 M^−1 | 6.09 (±0.30) × 10^13 M^−1s^−1 | 0.6% | 85.39 ± 0.52% | 92.5% | 6.09 (±0.31) × 10^5 M^−1 | 8.70 (±0.43) × 10^13 M^−1s^−1 | 7.5% | 
[Fe3O(dicl)6(MeOH)3][FeCl4]·Hdicl·1.5MeOH∙H2O [Complex 3] | 1.53 (±0.51) × 10^6 M^−1 | 25.7% | 6.66 (±0.23) × 10^13 M^−1s^−1 | 18.94 ± 0.73% |  | 18.98 ± 0.74% | 94.31 ± 0.78% | 96.5% | 2.42 (±0.17) × 10^5 M^−1 | 5.22 (±0.35) × 10^13 M^−1s^−1 | 3.5% | 87.72 ± 0.36% | 97.6% | 5.44 (±0.05) × 10^5 M^−1 | 8.45 (±0.31) × 10^13 M^−1s^−1 | 2.4% | 74.3%
